These results are taken from publication PMC9127364, “2-Aminoacrylate stress damages diverse PLP-dependent enzymes in vivo” (The Journal of Biological Chemistry, 2022).

For experiment [1], the target named is T1, IlvE (Salmonella enterica, UniProt P0A1A5).
T1 construct: pET28b plasmid, purified on HisTrap (His-tagged); expressed in S. enterica DM13509 (wild type) and DM17050 (ridA)
T1 sequence (P0A1A5 2-309): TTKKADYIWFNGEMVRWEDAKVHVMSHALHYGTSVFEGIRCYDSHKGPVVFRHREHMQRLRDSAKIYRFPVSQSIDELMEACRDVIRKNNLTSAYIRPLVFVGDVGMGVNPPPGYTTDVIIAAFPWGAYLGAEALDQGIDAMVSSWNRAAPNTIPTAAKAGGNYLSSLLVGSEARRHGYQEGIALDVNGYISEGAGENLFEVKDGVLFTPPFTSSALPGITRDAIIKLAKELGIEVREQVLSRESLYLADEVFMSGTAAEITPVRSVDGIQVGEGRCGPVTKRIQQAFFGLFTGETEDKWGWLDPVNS
Put plainly: base release of bound cofactor, HPLC at […] nm. The note with it: protein from wild-type (ridA+) host; 30 mM KOH release; storage buffer with 10 μM PLP. Type of experiment: binding.

Experiment [2] addresses T1, IlvE. Put plainly: pyruvate-PLP adduct released by base from the purified protein, HPLC. Type of experiment: cell-based. Particulars: covalent; 2AA formed in vivo, ridA host, 5 mM L-serine; attacks active-site PLP.
Experiment [3] addresses T2, Alr (Salmonella enterica, UniProt P0A1A3).
T2 construct: pET20b derivative pDM1602, N-terminal His6 tag; expressed in and purified from S. enterica DM13509 (wild type) and DM17050 (ridA)
Described as above. Type of experiment: cell-based. Particulars: covalent; 2AA formed in vivo, ridA host, 5 mM L-serine; attacks active-site PLP.
From the text: pyruvate-PLP adduct released by base from the purified protein, HPLC on Alr

The target of experiment [4] is T3, IlvA (Salmonella enterica, UniProt P20506).
T3 construct: pET20b derivative pDM1578, N-terminal His6 tag; expressed in S. enterica DM13509 (wild type) and DM17050 (ridA)
T3 sequence (P20506 1-514): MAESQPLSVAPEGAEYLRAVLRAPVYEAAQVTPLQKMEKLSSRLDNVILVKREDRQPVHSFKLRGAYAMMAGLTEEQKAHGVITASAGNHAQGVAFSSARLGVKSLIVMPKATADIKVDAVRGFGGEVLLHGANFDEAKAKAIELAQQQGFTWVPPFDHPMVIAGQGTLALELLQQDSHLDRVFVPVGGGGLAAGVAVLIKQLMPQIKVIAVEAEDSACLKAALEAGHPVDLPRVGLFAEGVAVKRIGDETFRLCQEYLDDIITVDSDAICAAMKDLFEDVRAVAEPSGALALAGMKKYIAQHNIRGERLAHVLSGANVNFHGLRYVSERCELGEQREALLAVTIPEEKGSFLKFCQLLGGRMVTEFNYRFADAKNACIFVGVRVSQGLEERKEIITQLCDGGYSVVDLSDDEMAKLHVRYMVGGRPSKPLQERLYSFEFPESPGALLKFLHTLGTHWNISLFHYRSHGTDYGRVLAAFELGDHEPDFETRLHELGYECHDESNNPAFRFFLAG
The description is as above. It is filed as cell-based. The note with it: covalent; 2AA formed in vivo, ridA host, 5 mM L-serine; attacks active-site PLP.
From the text: pyruvate-PLP adduct released by base from the purified protein, HPLC on IlvA

Experiment [5] deals with T2, Alr. In words: base release of bound cofactor, HPLC at […] nm. Type of experiment: binding. The note with it: protein from wild-type (ridA+) host; 30 mM KOH release; storage buffer with 10 μM PLP.
Experiment [6] concerns the target T1, IlvE. Put plainly: base release of bound cofactor, HPLC at […] nm. Type of experiment: binding. Particulars: protein from wild-type (ridA+) host; 30 mM KOH release; storage buffer with 10 μM PLP. The source holds these as a separate data set.
In experiment [7] the target is T3, IlvA. In words: base release of bound cofactor, HPLC at […] nm. Type of experiment: binding. The note with it: protein from wild-type (ridA+) host; 30 mM KOH release; storage buffer with 10 μM PLP.
Experiment [8] has as its target T2, Alr. Put plainly: incubation with purified protein, base release of cofactors, HPLC. Type of experiment: binding. The note with it: covalent; suicide inhibitor, forms pyruvate-PLP in the active site; protein from ridA+ host.

T2 sequence (P0A1A3 whole entry): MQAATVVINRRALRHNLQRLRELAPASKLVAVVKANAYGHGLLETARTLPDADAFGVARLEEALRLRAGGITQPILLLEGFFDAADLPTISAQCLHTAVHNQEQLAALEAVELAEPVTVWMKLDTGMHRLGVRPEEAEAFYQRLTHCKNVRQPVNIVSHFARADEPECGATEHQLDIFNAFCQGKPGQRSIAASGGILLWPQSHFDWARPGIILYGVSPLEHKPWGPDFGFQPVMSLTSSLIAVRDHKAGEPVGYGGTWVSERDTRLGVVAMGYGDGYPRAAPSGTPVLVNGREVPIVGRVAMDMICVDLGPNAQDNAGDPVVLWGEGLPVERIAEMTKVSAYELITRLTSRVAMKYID

Turning to `Cc1ncc(COP(=O)(O)O)c(CN)c1O` [PMP], at IlvE [1], the PMP is on record as 0.33 ± <0.01.
Regarding `C=C(N)C(=O)O` [2AA], the figures for the Pyruvate-PLP on IlvE [2], on Alr [3] and on IlvA [4] were 0.72 ± <0.01, 0.11 ± <0.01 and 0.03 ± <0.01, respectively.
With `Cc1ncc(COP(=O)(O)O)c(C=O)c1O` [PLP], the PLP is reported as 0.87 ± <0.01 at Alr [5], 0.30 ± <0.01 on IlvE [6] and 1.25 ± 0.04 nmol/nmol protein at IlvA [7].
As to `NC(CCl)C(=O)O` (centres unmarked) [3CA], on Alr [8], the “incubation with purified protein, base release of cofactors, HPLC” value is “Alr but not IlvA is sensitive to 3-chloroalanine (3CA)”.
